Source: patent US5880147A, “Amide derivatives having ACAT inhibitory activity, their preparation and their therapeutic and prohylactic use” (Sankyo Company, Limited, priority 1995, dated 1999)

target: T1, ACAT (acyl-CoA: cholesterol acyl transferase) (Mus musculus, UniProt Q61263); assay: Inhibition of ACAT in M.phi. (mouse peritoneal macrophages); format: cell-based, mouse (female DDY mice); settings: β-VLDL 50 μg cholesterol/ml, [14C]oleate-albumin, 37° C., 3 hours
T1 construct: endogenous in cells; host or cells: primary adherent peritoneal macrophages from unstimulated female DDY mice
T1 sequence (Q61263 1-540): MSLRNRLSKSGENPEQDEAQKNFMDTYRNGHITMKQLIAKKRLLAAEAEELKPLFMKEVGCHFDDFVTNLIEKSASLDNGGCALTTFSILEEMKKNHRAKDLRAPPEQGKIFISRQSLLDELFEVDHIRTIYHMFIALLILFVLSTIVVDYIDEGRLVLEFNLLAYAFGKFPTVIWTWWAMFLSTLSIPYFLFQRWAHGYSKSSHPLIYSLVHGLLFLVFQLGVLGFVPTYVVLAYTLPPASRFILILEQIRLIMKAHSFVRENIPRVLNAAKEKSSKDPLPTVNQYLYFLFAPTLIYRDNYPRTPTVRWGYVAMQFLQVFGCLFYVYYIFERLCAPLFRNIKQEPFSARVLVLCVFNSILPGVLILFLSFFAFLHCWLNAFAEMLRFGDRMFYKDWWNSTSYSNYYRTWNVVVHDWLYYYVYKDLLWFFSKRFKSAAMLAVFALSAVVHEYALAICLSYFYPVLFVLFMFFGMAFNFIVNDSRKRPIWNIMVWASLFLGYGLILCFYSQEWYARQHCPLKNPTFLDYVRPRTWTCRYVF
Procedure: Blood was obtained [using the anticoagulant ethylene diamine tetraacetic acid (5 mM)] from Japanese White rabbits which had been fed a 2% w/w cholesterol diet for 2 weeks and then fasted overnight prior to removing the blood. β-VLDL (d<1.006 g/ml) was isolated by ultracentrifugation from the plasma according to the method of Hatch and Lees [Hatch, F T. and Lees, R S.,Adv. Lipid Res., 6 1-68 (1968)] and dialyzed at 4° C. against 10 mM of a sodium phosphate buffer (pH 7.4) containing 150 mM sodium chloride.
Peritoneal cells were harvested from unstimulated female DDY mice (body weight 20-30 g) in phosphate buffer saline (PBS) as described by Edelson and Cohn [Edelson, P J. and Cohn, Z A.,1976, "In Vitro Methods in Cell-Mediated and Tumor Immunity", editors Bloon, B R and David, J R., (Academic Press, New York), 330-340.]. The fluid from the mice was pooled and the cells were collected by centrifugation at 400×g for 10 minutes at 4° C., and washed once with PBS. The cells were resuspended in Dulbecco's modified Eagle's medium (DMEM) containing 10% (vol/vol) fetal calf serum (FCS), penicillin (100 units/ml), and streptomycin (100 μg/ml) at a final concentration of 3×10^6 cells per ml. Aliquots (1 ml) of this cell suspension were dispersed onto plastic petri dishes (35×10 mm) and then incubated in a CO2 incubator (5% CO2 /95% air) at 37° C. for 2 hours. Each dish was washed twice with PBS without serum to remove nonadherent cells.
Inhibition of ACAT in M.phi. was determined according to the method described by Brown et al. Brown, M S., Goldstein J L., Krieger, M., Ho, Y K. and Anderson, R G W. (1979) J. Cell Biol., 82, 597-613.]. Cholesterol reacylation was initiated by adding β-VLDL (final concentration 50 μg cholesterol/ml), [^14 C]oleate-albumin complex (final concentrations: 0.2 mM oleate and 0.6 mg/ml albumin) and a test compound dissolved in ethanol into the M.phi. monolayer, and the preparation was incubated at 37° C. for 3 hours in a CO2 incubator. Cells were washed three times with PBS and cellular lipid was extracted with 1 ml hexane/isopropanol (3:2 vol/vol). A lipid extract was evaporated to dryness in a stream of nitrogen. Cholesterol [^14 C]oleated was seperated by thin layer chromatography through silica gel using an 85:15:1 by volume mixture of hexane, diethyl ether and acetic acid as developing solvents. The ACAT activity in M.phi. was determined by measuring the radioactivity and an inhibition rate (%) was calculated by comparing a control activity with those of the test compound at given concentrations. The results are shown in the following Table, in which the compounds of the present invention are identified by the number of the Example given hereafter in which they are prepared.

SMILES	IC50 [nM]
CCCCCC(CC(=O)Nc1cc(C(=O)NC)ccc1C(C)(C)C)c1ccc(OC)cc1OC (stereo not drawn) [Example 1, N-(2-t-Butyl-5-N'-methylcarbamoylphenyl)-3-(2,4-dimethoxphenyl)octanamide]	59.7
CCCCCC(CC(=O)Nc1cc(C(N)=O)ccc1C(C)(C)C)c1ccc(OC)cc1OC (stereo not drawn) [Example 2, N-(2-t-Butyl-5-carbamoylphenyl)-3-(2,4-dimethoxyphenyl)octanamide]	41.8
CCCCCC(CC(=O)Nc1cc(CC(=O)NC)ccc1C(C)(C)C)c1ccc(OC)cc1OC (stereo not drawn) [Example 3]	31.1
CCCCCC(CC(=O)Nc1cc(CC(N)=O)ccc1C(C)(C)C)c1ccc(OC)cc1OC (stereo not drawn) [Example 4, N-[2-t-Butyl-5-(carbamoylmethyl)phenyl]-3-(2,4-dimethoxyphenyl)octanamide]	5.97
CCCCCC(CC(=O)Nc1cc(COC(N)=O)ccc1C(C)(C)C)c1ccc(OC)cc1OC (stereo not drawn) [Example 5, N-[2-t-Bu=l-5-(carbamoyloxymethyl)phenyl]-3-(2,4-dimethoxyphenyl)octanamide]	68.1
CCCCCC(CC(=O)Nc1cc(CNS(=O)(=O)CC)ccc1C(C)(C)C)c1ccc(OC)cc1OC (stereo not drawn) [Example 11, N-[2-t-Butyl-5-(ethylsulfonylaminomethyl)phenyl]-3-(2,4-dimethoxyphenyl)octanamide]	9.76
CCCCCC(CC(=O)Nc1cc(CC#N)ccc1C(C)(C)C)c1ccc(OC)cc1OC (stereo not drawn) [Example 19, N-(2-t-Butyl-5-cyanomethylphenyl)-3-(2,4-dimethoxyphenyl)octanamide]	28.8
CCCCCC(CC(=O)Nc1cc(CNC(=O)N(C)C)ccc1C(C)(C)C)c1ccc(OC)cc1OC (stereo not drawn) [Example 23, N-[2-t-Butyl-5-(N',N'-dimethylaminocarbonylaminomethyl)phenyl]-3-(2,4-dimethoxyphenyl)octanamide]	10.6
CCCCCC(CC(=O)Nc1cc(C(=O)NC)ccc1C(C)(C)C)c1cc(C(=O)NC)c(OC)cc1OC (stereo not drawn) [Example 35, N-(2-t-Butyl-5-N'-methylcarbamoylphenyl)-3-(2,4-dimethoxy-5-N"-methylcarbamoylphenyl)octanamide]	62.8
CCCCCCC(CC(=O)Nc1cc(C(N)=O)ccc1C(C)(C)C)c1ccc(OC)cc1OC (stereo not drawn) [Example 44, N-(2-t-Butyl-5-carbamoylphenyl)-3-(2,4-dimethoxyphenyl)nonanamide]	23.5
CCCCCC(CC(=O)Nc1cc(C(=O)NC)ccc1C(C)(C)C)c1ccc(OCC(=O)NCCCC)cc1OC (stereo not drawn) [Example 64, N-(2-t-Butyl-5-N'-methylcarbamoylphenyl)-3-(4-N"-butylcarbamoylmethloxy-2-methoxyphenyl)octanamide]	29.9
CCCCCC(CC(=O)Nc1cc(C(=O)NC(=O)C(C)C)ccc1C(C)(C)C)c1ccc(OC)cc1OC (stereo not drawn) [Example 131, N-[2-t-Butyl-5-(2-methylpropanoyl)aminocarbonylphenyl)-3-(2,4-dimethoxyphenyl]octanamide]	17.3
CCCCCC(CC(=O)Nc1cc(C(=O)NC(=O)c2cccnc2)ccc1C(C)(C)C)c1ccc(OC)cc1OC (stereo not drawn) [Example 136, N-{2-t-Butyl-5-[(3-pyridyl)carbonlaminocarbonyl]phenyl}-3-(2,4-dimethoxyphenyl)octanamide]	9.65
CCCCCC(CC(=O)Nc1cc(CN2C(=O)c3ccccc3C2=O)ccc1C(C)(C)C)c1cccc2c1OCCO2 (stereo not drawn) [Example 142, N-[2-t-Butyl-5-(phthalimidomethyl)phenyl]-3-(2,3-ethylenedioxyphenyl)octanamide]	35.2
CCCCCC(CC(=O)Nc1cc(CNC(=O)c2cccnc2)ccc1C(C)(C)C)c1ccc(OC)cc1OC (stereo not drawn) [Example 158, N-[2-t-Butyl-5-(N'-3-pyridylcarbonylaminomethyl)phenyl]-3-(2,4-dimethoxyphenyl)octanamide]	18
CCCCCC(CC(=O)Nc1cc(C(=O)Nc2ccccn2)ccc1C(C)(C)C)c1c(OC)cccc1OC (stereo not drawn) [Example 165, N-{2-t-Butyl-5-[N-(2-pyridyl)carbamoyl]phenyl}-3-(2,6-dimethoxyphenyl)octanamide]	1.37
CCCCCC(CC(=O)Nc1cc(CNC(=O)NC(C)C)ccc1C(C)(C)C)c1cccc2c1OCCO2 (stereo not drawn) [Example 173, N-[2-t-Butyl-5-(N'-isopropylureidomethyl)phenyl]-3-(2,3-ethylenedioxyphenyl)octanamide]	17.6
CCCCCC(CC(=O)Nc1cc(CCC(=O)NC)ccc1C(C)(C)C)c1cc(OC)c(OC)cc1OC (stereo not drawn) [Example 186, N-[2-t-Butyl-5-(3-methylamino-3-oxopropyl)phenyl]-3-(2,4,5-trimethoxyphenyl)octanamide]	79.7
